Experiments:
[1] = Cell cytotoxicity assay Jurkat (CellTiter-Glo, 72 hours); format: cell-based; conditions: human, Jurkat clone E6-1 cells, Table 3; 72 hours, top concentration of 50 μM; read-out: Cytotox Jurkat EC50
How it was run: (§1)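 HEK-293T or Jurkat E6-1 cells plated at 450 cells/well were treated the next day with a 10-point titration from 50 μM top (0.5% DMSO final). After 72 h at 37° C, viability was read by CellTiter-Glo luminescence.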

[2] = Cell cytotoxicity assay HEK-293T (CellTiter-Glo, 72 hours); format: cell-based; conditions: human, HEK-293T cells, Table 3; 72 hours, top concentration of 50 μM; read-out: Cytotox K-293 EC50
How it was run: as §1

[3] = molecular target: Recombinant human JAK2 kinase domain protein (Residues 812-1132) (Homo sapiens, UniProt O60674); assay: JAK2 biochemical assay (microfluidic mobility shift, peptide phosphorylation); conditions: Enzyme JAK2 Ki (nM), 25 μM ATP, 0.2 nM total JAK2
Chain of Recombinant human JAK2 kinase domain protein (Residues 812-1132) (O60674 812-1132): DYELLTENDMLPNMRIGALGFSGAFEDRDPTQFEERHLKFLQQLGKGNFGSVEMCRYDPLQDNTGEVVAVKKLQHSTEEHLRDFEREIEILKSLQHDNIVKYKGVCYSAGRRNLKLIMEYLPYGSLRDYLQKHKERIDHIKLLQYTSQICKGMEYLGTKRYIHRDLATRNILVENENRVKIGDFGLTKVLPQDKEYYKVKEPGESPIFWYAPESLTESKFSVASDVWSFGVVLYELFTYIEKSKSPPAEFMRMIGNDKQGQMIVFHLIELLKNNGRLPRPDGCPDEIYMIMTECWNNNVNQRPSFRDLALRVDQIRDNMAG
Procedure: JAK1 and JAK2 Biochemical Assays
The in vitro biochemical assays quantify JAK-catalyzed phosphorylation of a synthetic peptide, as detected using a LabChip® EZ Reader II microfluidic mobility shift instrument (PerkinElmer; Waltham, Mass.). […] Y-1B is fluorescently labeled on the N-terminus with 5-FAM (5-carboxyfluorescein) and contains a single tyrosine residue (Y) that can be phosphorylated by JAK activity. The substrate peptide stock is prepared in DMSO at 5 mM.
In each titration experiment, test compound was tested in duplicate at each of the twelve concentrations. Blank reactions contained ATP, peptide, and DMSO, but no JAK or test compound, whereas uninhibited control reactions contained ATP, peptide, JAK, and DMSO, but no test compound.
Peptide plus ATP mixture (24 μL) was added to 1 μL of test compound in DMSO (or DMSO alone). The reactions were initiated by adding 25 μL of JAK enzyme to the inhibitor/peptide/ATP mixture before thoroughly mixing the resultant solution. Reactions were incubated at room temperature (22° C.-23° C.) in a final volume of 50 μL per well in 384-well plates.
In each reaction, the residual Y-1B substrate and the phospho-peptide product generated were separated using the EZ Reader II instrument. Electrophoretic separation of molecules of product from molecules of substrate was achieved using downstream and upstream voltages of −500 and −2600 V, respectively, at an operating pressure of −1.3 psi.
The extent (or percent) of conversion of substrate to product was calculated from the corresponding peak heights in the electropherogram using HTS Well Analyzer software, Version 5.2 (PerkinElmer), and the following equation (Equation 1): % conversion=[P÷(S+P)]×100 Equation 1 where S and P represent the peak heights of the substrate and product, respectively. After any baseline signal from blank wells containing no JAK was subtracted from the signal of all test wells, the % conversion data were converted to fractional activity as shown in Equation 2, where vi and vo are the % conversion in the presence and absence of test compound, respectively.

[4] = tested on: JAK1 pathway: P-STAT6 in TF-1 human erythroleukemia cells + IL-13; assay: P-STAT6 TF-1+Interleukin-13 (IL-13) assay; format: cell-based; conditions: Homo sapiens, TF-1, TF-1 cells, IL-13 stimulation; read-out: Cellular JAK1 PSTAT6 TF-1 + IL13 IC50
Procedure: (§2) TF-1 human erythroleukemia cells (ATCC®; Manassas, Va.; Catalog No. CRL-2003™) were grown in Roswell Park Memorial Institute (RPMI) medium supplemented with 10% heat-inactivated fetal bovine serum (FBS), 2 ng/mL granulocyte-macrophage colony-stimulating factor, 1×non-essential amino acids (NEAA), and 1 mM sodium pyruvate. The day before the assay, the cultures were transferred to Opti-MEM™, 1×NEAA, 1 mM sodium pyruvate, and 0.5% charcoal-stripped FBS (starve medium). Inhibitor stock solutions (5 mM in DMSO) were serially diluted 1:2 in DMSO to generate a 10-point concentration titration (at 500×test concentration), which was further diluted by a 50-fold dilution in Assay Medium (RPMI containing 1×NEAA and 1 mM sodium pyruvate) to generate a 10×concentration titration (in 2% DMSO). The cells (300,000 cells/well in 35 μL of Assay Medium) were seeded in 384-well Greiner plates. Diluted inhibitor at 10×concentration (5 μL) was added to the cells and the plates were incubated for 30 minutes at 37° C. in a humidified incubator. Cells were stimulated with the human recombinant cytokine at the respective EC90 concentrations, as previously determined for each individual lot. For the phosphorylated signal transducer and activator of transcription 6 (P-STAT6) TF-1+Interleukin-13 (IL-13) assay, 10 μL of 250 ng/mL IL-13 (R&D Systems; Minneapolis, Minn.) was added to the cells, which were then incubated for 10 minutes at 37° C. For the P-STAT5 TF-1+Erythropoietin (EPO) assay, 10 μL of 110 IU/mL EPO (Gibco Life Technologies, Catalog No. PHC2054) was added to the cells, which were then incubated for 30 min at 37° C. For both assays, the incubation was followed by addition to the cells of 5 μL of ice-cold 10× cell lysis buffer (Cell Signaling Technologies; Danvers, Mass.; Catalog No. 9803S) containing 1 mM phenylmethylsulfonyl fluoride (PMSF). Assay plates were frozen at −80° C. for a minimum of 1 horn. In the IL-13 assay, P-STAT6 was measured by coating goat anti-rabbit (GAR) plates (Meso Scale Discovery [MSD]; Rockville, Md.; Catalog No. MSD L21RA-1) with rabbit anti-human total STAT6 antibody (Cell Signaling Technologies; Catalog No. 9362S), incubating the cell lysates in the coated plates overnight at 4° C., and then detecting with mouse anti-P-STAT6 (Tyr641) Clone 16E12 antibody (MilliporeSigma; Burlington, Mass.; Catalog No. 05-590, custom labeled by MSD with SULFO-tag) using standard MSD plate processing, washing, and detection protocols. In the EPO assay, P-STAT5 was detected using the phospho-STAT5a,b Whole Cell Lysate Kit (MSD; Catalog No. K150IGD-1). The electrochemiluminescence (ECL) signal of wells was read on the MESO SECTOR S600 (MSD) reader.

[5] = tested on: JAK2 pathway: P-STAT5 in TF-1 human erythroleukemia cells + EPO; assay: P-STAT5 TF-1+Erythropoietin (EPO) assay; format: cell-based; conditions: Homo sapiens, TF-1, TF-1 cells, EPO stimulation; read-out: Cellular JAK2 PSTAT5 TF-l + EPO IC50
Procedure: as §2

[6] = Cell cytotoxicity assay A549 (CellTiter-Glo, 72 hours); format: cell-based; conditions: human, A549 cells, Table 3; 72 hours, top concentration of 50 μM; read-out: Cytotox A549 EC50
How it was run: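 A549 cells were plated overnight, then exposed for 72 h at 37 °C to a 10-point compound titration (top 50 μM, 0.5% DMSO final). Viability was read as CellTiter-Glo luminescence after 20 min at room temperature.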

Compound: C[C@@H](O)CS(=O)(=O)c1ccc(OC(F)F)c(-c2nn(C)cc2NC(=O)c2cnn3cccnc23)c1 (stereo in doubt) [Example 25, N-[3-[2-(difluoromethoxy)-5-[rac-(2R)-2-hydroxypropyl]sulfonyl-phenyl]-1-methyl-pyrazol-4-yl]pyrazolo[1,5-a]pyrimidine-3-carboxamide]
- EC50 at 72 h [1]: ≥ 50000 nM
- EC50 at 72 h [2]: 48000 nM
- Ki [3]: 0.2 nM
- IC50 [4]: 20 nM
- IC50 [5]: 39 nM
- EC50 at 72 h [6]: ≥ 50000 nM

Compound: Cn1cc(NC(=O)c2cnn3cccnc23)c(-c2cc(S(=O)(=O)C3CCC3)ccc2OC(F)F)n1 [Example 2, N-[3-[5-cyclobutylsulfonyl-2-(difluoromethoxy)phenyl]-1-methyl-pyrazol-4-yl]pyrazolo[1,5-a]pyrimidine-3-carboxamide]
- EC50 at 72 h [1]: 38500 nM
- EC50 at 72 h [2]: 27500 nM
- Ki [3]: 0.2 nM
- IC50 [4]: 14 nM
- IC50 [5]: 12 nM
- EC50 at 72 h [6]: 25500 nM

Compound: Cn1cc(NC(=O)c2cnn3cccnc23)c(-c2cc(S(=O)(=O)CCO)ccc2OC(F)F)n1 [Example 5, N-[3-[2-(difluoromethoxy)-5-(2-hydroxyethylsulfonyl)phenyl]-1-methyl-pyrazol-4-yl]pyrazolo[1,5-a]pyrimidine-3-carboxamide]
- EC50 at 72 h [1]: 23000 nM
- EC50 at 72 h [2]: 10200 nM
- Ki [3]: 0.19 nM
- IC50 [4]: 16 nM
- IC50 [5]: 29 nM
- EC50 at 72 h [6]: 45500 nM

Compound: CN(C)CCS(=O)(=O)c1ccc(OC(F)F)c(-c2nn(C)cc2NC(=O)c2cnn3cccnc23)c1 [Example 7, N-[3-[2-(difluoromethoxy)-5-[2-(dimethylamino)ethylsulfonyl]phenyl]-1-methyl-pyrazol-4-yl]pyrazolo[1,5-a]pyrimidine-3-carboxamide]
- EC50 at 72 h [1]: 2100 nM
- EC50 at 72 h [2]: 6900 nM
- Ki [3]: 0.49 nM
- IC50 [4]: 21 nM
- IC50 [5]: 22 nM
- EC50 at 72 h [6]: 4100 nM

Compound: COc1cccc(S(=O)(=O)c2ccc(OC(F)F)c(-c3nn(C)cc3NC(=O)c3cnn4cccnc34)c2)c1 [Example 12, N-[3-[2-(difluoromethoxy)-5-(3-methoxyphenyl)sulfonyl-phenyl]-1-methyl-pyrazol-4-yl]pyrazolo[1,5-a]pyrimidine-3-carboxamide]
- EC50 at 72 h [1]: ≥ 50000 nM
- EC50 at 72 h [2]: 36000 nM
- Ki [3]: 0.14 nM
- IC50 [4]: 8.7 nM
- IC50 [5]: 9.1 nM
- EC50 at 72 h [6]: ≥ 50000 nM

Compound: Cn1cc(NC(=O)c2cnn3cccnc23)c(-c2cc(S(=O)(=O)C3COC3)ccc2OC(F)F)n1 [Example 13, N-[3-[2-(difluoromethoxy)-5-(oxetan-3-ylsulfonyl)phenyl]-1-methyl-pyrazol-4-yl]pyrazolo[1,5-a]pyrimidine-3-carboxamide]
- EC50 at 72 h [1]: ≥ 50000 nM
- EC50 at 72 h [2]: 31000 nM
- Ki [3]: 0.19 nM
- IC50 [4]: 34 nM
- IC50 [5]: 28 nM
- EC50 at 72 h [6]: 44000 nM

Compound: Cn1cc(NC(=O)c2cnn3cccnc23)c(-c2cc(S(=O)(=O)C3CC3)ccc2OC(F)F)n1 [Example 22, N-[3-[5-cyclopropylsulfonyl-2-(difluoromethoxy)phenyl]-1-methyl-pyrazol-4-yl]pyrazolo[1,5-a]pyrimidine-3-carboxamide]
- EC50 at 72 h [1]: ≥ 50000 nM
- EC50 at 72 h [2]: 43000 nM
- Ki [3]: 0.19 nM
- IC50 [4]: 4.6 nM
- IC50 [5]: 14 nM
- EC50 at 72 h [6]: ≥ 50000 nM

Compound: CS(=O)(=O)c1ccc(OC(F)F)c(-c2nn(CC#N)cc2NC(=O)c2cnn3cccnc23)c1 [Example 28, N-[1-(cyanomethyl)-3-[2-(difluoromethoxy)-5-methylsulfonyl-phenyl]pyrazol-4-yl]pyrazolo[1,5-a]pyrimidine-3-carboxamide]
- EC50 at 72 h [1]: 39000 nM
- EC50 at 72 h [2]: 24000 nM
- Ki [3]: 0.14 nM
- IC50 [4]: 3.1 nM
- IC50 [5]: 26 nM
- EC50 at 72 h [6]: ≥ 50000 nM

Compound: Cn1cc(S(=O)(=O)c2ccc(OC(F)F)c(-c3nn(C)cc3NC(=O)c3cnn4cccnc34)c2)cn1 [Example 35, N-[3-[2-(difluoromethoxy)-5-(1-methylpyrazol-4-yl)sulfonyl-phenyl]-1-methyl-pyrazol-4-yl]pyrazolo[1,5-a]pyrimidine-3-carboxamide]
- EC50 at 72 h [1]: 21000 nM
- EC50 at 72 h [2]: 17000 nM
- Ki [3]: 0.19 nM
- IC50 [4]: 5.8 nM
- IC50 [5]: 14 nM
- EC50 at 72 h [6]: 22000 nM

Compound: Cn1cc(NC(=O)c2cnn3cccnc23)c(-c2cc(S(=O)(=O)c3ccccc3)ccc2OC(F)F)n1 [Example 40, N-[3-[5-(benzenesulfonyl)-2-(difluoromethoxy)phenyl]-1-methyl-pyrazol-4-yl]pyrazolo[1,5-a]pyrimidine-3-carboxamide]
- EC50 at 72 h [1]: ≥ 50000 nM
- EC50 at 72 h [2]: ≥ 50000 nM
- Ki [3]: 0.11 nM
- IC50 [4]: 3.1 nM
- IC50 [5]: 6.4 nM
- EC50 at 72 h [6]: ≥ 50000 nM

Compound: Cn1cc(NC(=O)c2cnn3cccnc23)c(-c2cc(S(=O)(=O)c3cn[nH]c3)ccc2OC(F)F)n1 [Example 41, N-[3-[2-(difluoromethoxy)-5-(1H-pyrazol-4-ylsulfonyl)phenyl]-1-methyl-pyrazol-4-yl]pyrazolo[1,5-a]pyrimidine-3-carboxamide]
- EC50 at 72 h [1]: 35000 nM
- EC50 at 72 h [2]: 28000 nM
- Ki [3]: 0.1 nM
- IC50 [4]: 15 nM
- IC50 [5]: 34 nM
- EC50 at 72 h [6]: ≥ 50000 nM

Compound: Cn1cc(NC(=O)c2cnn3cccnc23)c(-c2cc(S(=O)(=O)c3ccn(C)c(=O)c3)ccc2OC(F)F)n1 [Example 44, N-[3-[2-(difluoromethoxy)-5-[(1-methyl-2-oxo-4-pyridyl)sulfonyl]phenyl]-1-methyl-pyrazol-4-yl]pyrazolo[1,5-a]pyrimidine-3-carboxamide]
- EC50 at 72 h [1]: 11000 nM
- EC50 at 72 h [2]: 7000 nM
- Ki [3]: 0.34 nM
- IC50 [4]: 14 nM
- IC50 [5]: 15 nM
- EC50 at 72 h [6]: 24000 nM

Compound: N#CCn1cc(NC(=O)c2cnn3cccnc23)c(-c2cc(S(=O)(=O)C3CC3)ccc2OC(F)F)n1 [Example 45, N-[1-(cyanomethyl)-3-[5-cyclopropylsulfonyl-2-(difluoromethoxy)phenyl]pyrazol-4-yl]pyrazolo[1,5-a]pyrimidine-3-carboxamide]
- EC50 at 72 h [1]: ≥ 50000 nM
- EC50 at 72 h [2]: ≥ 50000 nM
- Ki [3]: 0.35 nM
- IC50 [4]: 10 nM
- IC50 [5]: 38 nM
- EC50 at 72 h [6]: ≥ 50000 nM

Compound: Cn1cc(NC(=O)c2cnn3cccnc23)c(-c2cc3c(cc2OC(F)F)NCCS3(=O)=O)n1 [Example 46, N-[3-[6-(difluoromethoxy)-1,1-dioxo-3,4-dihydro-2H-1lambda6,4-benzothiazin-7-yl]-1-methyl-pyrazol-4-yl]pyrazolo[1,5-a]pyrimidine-3-carboxamide]
- EC50 at 72 h [1]: ≥ 50000 nM
- EC50 at 72 h [2]: ≥ 50000 nM
- Ki [3]: 0.087 nM
- IC50 [4]: 27 nM
- IC50 [5]: 61 nM
- EC50 at 72 h [6]: ≥ 50000 nM

Compound: CN(C)CCn1cc(S(=O)(=O)c2ccc(OC(F)F)c(-c3nn(C)cc3NC(=O)c3cnn4cccnc34)c2)cn1 [Example 49, N-[3-[2-(difluoromethoxy)-5-[1-[2-(dimethylamino)ethyl]pyrazol-4-yl]sulfonyl-phenyl]-1-methyl-pyrazol-4-yl]pyrazolo[1,5-a]pyrimidine-3-carboxamide]
- EC50 at 72 h [1]: 24000 nM
- EC50 at 72 h [2]: 14000 nM
- Ki [3]: 0.37 nM
- IC50 [4]: 20 nM
- IC50 [5]: 34 nM
- EC50 at 72 h [6]: 33000 nM

From patent US11453671B2, “Pyrazolopyrimidine inhibitors of JAK kinases and uses thereof” (Genentech, Inc., priority 2020, dated 2022)
